# In BindingDB's records for patent WO2025049746 (Eikon Therapeutics, 2025):
# Key:
# [1] = target: Bifunctional 3'-5' exonuclease/ATP-dependent helicase WRN (Homo sapiens, UniProt Q14191); test: ADP-Glo Kinase Assay
# Procedure: ATPase activity was measured using the ADP-Glo Kinase Assay following the manufacturers recommended protocol.
# [2] = target: T1, Bifunctional 3'-5' exonuclease/ATP-dependent helicase WRN [480-1251] (UniProt Q14191); test: Biochemical Activity Assays
# T1 construct: 480-1251
# T1 sequence (Q14191 480-1251): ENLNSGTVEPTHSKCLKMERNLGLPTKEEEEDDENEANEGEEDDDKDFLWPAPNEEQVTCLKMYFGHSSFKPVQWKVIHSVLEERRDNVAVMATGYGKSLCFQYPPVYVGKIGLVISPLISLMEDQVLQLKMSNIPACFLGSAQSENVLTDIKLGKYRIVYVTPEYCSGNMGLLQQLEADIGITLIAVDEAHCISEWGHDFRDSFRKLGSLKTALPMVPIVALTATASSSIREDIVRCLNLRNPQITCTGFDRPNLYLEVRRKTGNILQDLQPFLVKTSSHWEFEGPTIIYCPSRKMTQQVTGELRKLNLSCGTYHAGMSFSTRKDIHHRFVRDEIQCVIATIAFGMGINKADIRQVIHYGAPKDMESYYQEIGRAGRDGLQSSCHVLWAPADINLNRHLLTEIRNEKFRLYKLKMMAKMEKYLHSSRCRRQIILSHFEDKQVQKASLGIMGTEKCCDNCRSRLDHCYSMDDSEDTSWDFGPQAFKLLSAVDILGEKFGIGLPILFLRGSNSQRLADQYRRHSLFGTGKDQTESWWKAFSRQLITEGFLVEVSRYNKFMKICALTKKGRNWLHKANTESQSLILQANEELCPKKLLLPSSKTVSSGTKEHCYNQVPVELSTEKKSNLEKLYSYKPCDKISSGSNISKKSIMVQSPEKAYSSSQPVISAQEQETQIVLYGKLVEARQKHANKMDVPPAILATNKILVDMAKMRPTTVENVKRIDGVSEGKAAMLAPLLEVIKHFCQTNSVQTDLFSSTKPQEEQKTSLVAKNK
# Chain of Bifunctional 3'-5' exonuclease/ATP-dependent helicase WRN (Q14191 whole entry): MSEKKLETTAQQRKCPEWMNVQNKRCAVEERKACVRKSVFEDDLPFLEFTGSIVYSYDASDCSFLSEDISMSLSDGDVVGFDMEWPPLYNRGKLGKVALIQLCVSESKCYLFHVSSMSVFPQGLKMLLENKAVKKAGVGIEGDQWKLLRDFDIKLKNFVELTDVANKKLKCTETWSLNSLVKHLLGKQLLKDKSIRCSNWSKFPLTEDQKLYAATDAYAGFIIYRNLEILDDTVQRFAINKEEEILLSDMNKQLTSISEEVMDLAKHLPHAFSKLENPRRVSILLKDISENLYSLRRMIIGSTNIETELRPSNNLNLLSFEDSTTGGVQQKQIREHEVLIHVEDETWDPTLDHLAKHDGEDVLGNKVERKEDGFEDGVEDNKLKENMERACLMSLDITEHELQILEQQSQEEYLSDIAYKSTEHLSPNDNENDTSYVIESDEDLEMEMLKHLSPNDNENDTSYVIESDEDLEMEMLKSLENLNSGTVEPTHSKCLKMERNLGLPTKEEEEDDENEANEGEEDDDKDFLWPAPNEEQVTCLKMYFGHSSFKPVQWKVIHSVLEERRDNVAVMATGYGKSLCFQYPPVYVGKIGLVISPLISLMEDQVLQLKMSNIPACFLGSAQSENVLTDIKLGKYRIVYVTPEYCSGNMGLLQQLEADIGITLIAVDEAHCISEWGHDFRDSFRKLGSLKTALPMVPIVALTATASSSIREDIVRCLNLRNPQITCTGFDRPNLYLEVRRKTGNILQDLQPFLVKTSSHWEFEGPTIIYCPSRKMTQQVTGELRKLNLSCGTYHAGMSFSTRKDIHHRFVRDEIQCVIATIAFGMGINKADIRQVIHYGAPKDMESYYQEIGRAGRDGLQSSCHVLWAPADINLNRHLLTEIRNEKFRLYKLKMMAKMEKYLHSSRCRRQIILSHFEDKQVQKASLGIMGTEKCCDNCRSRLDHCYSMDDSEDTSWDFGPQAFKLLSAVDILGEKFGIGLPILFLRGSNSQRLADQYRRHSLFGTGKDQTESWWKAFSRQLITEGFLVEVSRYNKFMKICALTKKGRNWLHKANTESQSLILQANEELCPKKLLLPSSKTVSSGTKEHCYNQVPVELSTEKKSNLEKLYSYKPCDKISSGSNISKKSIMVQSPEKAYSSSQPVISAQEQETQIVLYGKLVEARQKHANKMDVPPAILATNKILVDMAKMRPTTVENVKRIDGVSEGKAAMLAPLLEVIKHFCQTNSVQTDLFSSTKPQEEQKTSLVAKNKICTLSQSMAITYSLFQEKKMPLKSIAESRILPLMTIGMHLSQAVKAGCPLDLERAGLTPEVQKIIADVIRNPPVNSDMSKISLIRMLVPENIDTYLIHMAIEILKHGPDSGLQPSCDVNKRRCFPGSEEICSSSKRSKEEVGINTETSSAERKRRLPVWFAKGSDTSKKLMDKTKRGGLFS
SMILES,IC50 [1] [nM],IC50 [2] [nM]
"CCc1c(N2CCN(C(=O)c3c(C#N)cnc(C)c3O)CC2)c(=O)n2nc(-c3ccc4c(c3)COC4)nc2n1CC(=O)Nc1ccc(C(F)(F)F)cc1Cl [WO2025049746, Example 449]",40,45
"CCc1c(N2CCN(C(=O)c3ncnc(C)c3O)CC2)c(=O)n2nc(C3=CCOCC3)nc2n1CC(=O)NC12CC(C(F)(F)C(F)(F)F)(C1)C2 [WO2025049746, Example 69]",235,141
"CCc1c(N2CCN(C(=O)c3ncnc(C)c3O)CC2)c(=O)n2nc(-c3cccc4c3CCO4)nc2n1CC(=O)Nc1ccc(C(F)(F)F)cc1Cl [WO2025049746, Example 348]",86,62
"CCc1c(N2CCN(C(=O)c3ncnc(C)c3O)[C@H](C)C2)c(=O)n2nc(-c3ccc4c(c3)COC4(C)C)nc2n1CC(=O)Nc1ccc(C(F)(F)F)cc1Cl [WO2025049746, Example 457]",39,40
"CCc1c(N2CCN(C(=O)c3ncnc(C)c3O)CC2)c(=O)n2nc(-c3ccn4c(C)ncc4c3)nc2n1CC(=O)Nc1ccc(C(F)(F)F)cc1Cl [WO2025049746, Example 218]",44,34
"CCC1=C(N2CCN(C(=O)C3=C4NN=CC4CC=N3)CC2)C(=O)N2N=C(C3CCOCC3)NC2N1CC(=O)Nc1ccc(C(F)(F)F)cc1Cl (stereo unspecified) [WO2025049746, Example 41]",83.9,56.9
"CCc1c(N2CCN(C(=O)c3ncnc(C)c3O)CC2)c(=O)n2c(CO)c(-c3ccc4c(c3)COC4)nc2n1CC(=O)Nc1ccc(C(F)(F)F)cc1Cl [WO2025049746, Example 452]",9850,29700
"CCc1c(N2CCN(C(=O)c3ncnc(C)c3O)CC2)c(=O)n2nc(-c3ccc4c(c3)CCO4)nc2n1CC(=O)Nc1ccc(Cl)c(OC(F)F)c1Cl [WO2025049746, Example 405]",44,35
"CCc1c(N2CCN(C(=O)c3ncnc(C)c3O)CC2)c(=O)n2nc(-c3cccc4c3OCO4)nc2n1CC(=O)Nc1ccc(SC(F)(F)F)cc1 [WO2025049746, Example 394]",760,593
"CCc1c(N2CCN(C(=O)c3nc4n(c(=O)c3OCc3ccccc3)CCOC4)CC2)c(=O)n2nc(N(C)C)nc2n1CC(=O)Nc1ccc(C(F)(F)F)cc1Cl [WO2025049746, Example 84]",40.7,38.4
"Cc1ncnc(C(=O)N2CCN(c3c4n(c5nc(-c6ccc7c(c6)COC7(C)C)nn5c3=O)[C@@H](C(=O)Nc3ccc(C(F)(F)F)cc3Cl)C[C@@H]4C)[C@H]3CC[C@@H]32)c1O [WO2025049746, Example 466]",> 29700,9390
"CCc1c(N2CCN(C(=O)c3ncnc(C)c3O)CC2)c(=O)n2nc(-c3ccc4c(c3)OC(F)(F)O4)nc2n1CC(=O)Nc1ccc(C(F)(F)F)cc1Cl [WO2025049746, Example 179]",77,59
"CCc1c(N2CCN(C(=O)C(F)(F)CO)CC2)c(=O)n2nc(C3=CCOCC3)nc2n1CC(=O)Nc1ccc(C(F)(F)F)cc1Cl [WO2025049746, Example 56]",737,139
"CCc1c(N2CCN(C(=O)c3ncnc(C)c3O)CC2)c(=O)n2nc(C3=CCOCC3)nc2n1CC(=O)Nc1ccc(C(F)(F)F)c2cccnc12 [WO2025049746, Example 360]",2140,1990
"CCc1c(N2CCN(C(=O)c3ncnc(C)c3O)CC2)c(=O)n2nc(-c3ccc4c(c3)COC43CCOCC3)nc2n1CC(=O)Nc1ccc(C(F)(F)F)cc1Cl [WO2025049746, Example 289]",53,56
"CCc1c(N2CCN(C(=O)c3nccc(C)c3N)CC2)c(=O)n2nc(C3=CCOCC3)nc2n1CC(=O)Nc1ccc(C(F)(F)F)cc1Cl [WO2025049746, Example 36]",42.9,38.3
"CCc1c(N2CCN(C(=O)c3ccccc3NS(=O)(=O)C3CC3)CC2)c(=O)n2nc(-c3ccc4c(c3)CCOC4)nc2n1CC(=O)Nc1ccc(C(F)(F)F)c2c1CC2 [WO2025049746, Example 110]",467,372
"CCc1c(N2CCN(C(C)=O)CC2)c(=O)n2nc(N(C)C)nc2n1CC(=O)Nc1ccc(C(F)(F)F)cc1Cl [WO2025049746, Example 81]",533,174
"CCc1c(N2CCN(C(=O)c3ncnc(C)c3O)CC2)c(=O)n2nc(-c3ccc4c(c3)COC4)nc2n1CC(=O)Nc1c(Cl)cc(C(F)(F)F)c2ccoc12 [WO2025049746, Example 447]",38,38
"CCc1c(N2CCN(C(=O)c3ncnc(C)c3O)CC2)c(=O)n2nc(-c3ccc4c(c3)C(C)(C)CO4)nc2n1CC(=O)Nc1ccc(C(F)(F)F)cc1Cl [WO2025049746, Example 193]",73,53
"CCc1c(N2CCN(C(=O)c3ncnc(C)c3O)CC2)c(=O)n2nc(-c3ccc4c(c3)COC4(C)C)nc2n1CC(=O)Nc1ccc(C(F)(F)F)cc1Cl [WO2025049746, Example 164]",44,45
"CCc1c(N2CCN(C(=O)c3ncnc(C)c3O)CC2)c(=O)n2nc(C3=CCOCC3)nc2n1CC(=O)NC12CC(C3CCC3)(C1)C2 [WO2025049746, Example 352]",174,122
"CCc1c(N2CCN(C(=O)C3CCCC3O)CC2)c(=O)n2nc(C3=CCOCC3)nc2n1CC(=O)Nc1ccc(C(F)(F)F)cc1Cl (stereo unspecified) [WO2025049746, Example 58]",1260,187
"CCc1c(N2CCN(C(=O)c3ncnc(C)c3O)CC2)c(=O)n2nc(C3=CCOCC3)nc2n1CC(=O)NC12CC(c3ccc(F)cc3)(C1)C2 [WO2025049746, Example 353]",6860,29700
"CCc1c(N2CCC(N(C)C(=O)c3ncnc(C)c3O)C2)c(=O)n2nc(C3=CCOCC3)nc2n1CC(=O)Nc1ccc(C(F)(F)F)cc1Cl (stereo unspecified) [WO2025049746, Example 339]",29700,2340
"CCc1c(N2CCN(C(=O)c3ncnc(C)c3O)CC2)c(=O)n2nc(-c3ccc4c(c3)OCO4)nc2n1CC(=O)Nc1c(Cl)cc(C(F)(F)F)c2c1CC2 [WO2025049746, Example 380]",61,44
"CCc1c(N2CCN(C(=O)c3ncnc(C)c3O)CC2)c(=O)n2nc(-c3ccc4c(c3)[C@H](C(F)(F)F)OC4)nc2n1CC(=O)Nc1ccc(C(F)(F)F)cc1Cl [WO2025049746, Example 277]",176,173

# Other lines, results leading:
IC50 [1] [nM],IC50 [2] [nM],SMILES
26.1,18.8,"CCc1c(N2CCN(C(=O)c3ncnc(C)c3O)CC2)c(=O)n2nc(C3=CCOCC3)nc2n1CC(=O)Nc1ccc(C(F)(F)C(F)(F)Cl)cc1 [WO2025049746, Example 71]"
21,24,"CCc1c(N2CCN(C(=O)c3ncnc(C)c3O)CC2)c(=O)n2nc(-c3ccc4c(c3)oc(=O)n4C)nc2n1CC(=O)Nc1ccc(C(F)(F)F)cc1Cl [WO2025049746, Example 233]"
33,28,"CCc1c(N2CCN(C(=O)c3ncnc(C)c3O)CC2)c(=O)n2nc(-c3cc(C)c4c(c3)COC4)nc2n1CC(=O)Nc1ccc(C(F)(F)F)cc1Cl [WO2025049746, Example 206]"
23,24,"CCc1c(N2CCN(C(=O)c3ncnc(C)c3O)CC2)c(=O)n2nc(-c3ccc4nc(C)cn4c3)nc2n1CC(=O)Nc1ccc(C(F)(F)F)cc1Cl [WO2025049746, Example 255]"
38,33,"CCc1c(N2CCN(C(=O)c3ncnc(C)c3O)CC2)c(=O)n2nc(-c3ccc4c(c3)C[C@H](OC)C4)nc2n1CC(=O)Nc1ccc(C(F)(F)F)cc1Cl [WO2025049746, Example 181]"
31.8,23.9,"CCc1c(N2CCN(C(=O)c3cncc4cc[nH]c34)CC2)c(=O)n2nc(C3=CCOCC3)nc2n1CC(=O)Nc1ccc(C(F)(F)F)cc1Cl [WO2025049746, Example 47]"
31,25.8,"CCc1c(N2CCN(C(=O)c3cn(C)[nH]c3=O)CC2)c(=O)n2nc(C3=CCOCC3)nc2n1CC(=O)Nc1ccc(C(F)(F)F)cc1Cl [WO2025049746, Example 33]"
22,22,"CCc1c(N2CCN(C(=O)c3ncnc(C)c3O)CC2)c(=O)n2nc(-c3ccc4nscc4c3)nc2n1CC(=O)Nc1ccc(C(F)(F)F)cc1Cl [WO2025049746, Example 266]"
29,29,"CCc1c(N2CCN(C(=O)c3ncnc(C)c3O)CC2)c(=O)n2nc(-c3ccc4ncn(C)c(=O)c4c3)nc2n1CC(=O)Nc1ccc(C(F)(F)F)cc1Cl [WO2025049746, Example 259]"
30.8,23.9,"CCc1c(N2CCN(C(=O)c3ncnc(C)c3O)CC2)c(=O)n2nc(-c3ccc4c(c3)CCOC4)nc2n1CC(=O)Nc1ccc(C(F)(F)F)c2c1CC2 [WO2025049746, Example 98]"
28,30,"CCc1c(N2CCN(C(=O)c3ncnc(C)c3O)CC2)c(=O)n2nc(-c3ccc4c(c3)CSC4)nc2n1CC(=O)Nc1ccc(C(F)(F)F)cc1Cl [WO2025049746, Example 257]"
19.3,15.9,"CCc1c(N2CCN(C(=O)c3ncnc(C)c3O)CC2)c(=O)n2nc(-c3cccc4c3OCCO4)nc2n1CC(=O)Nc1ccc(C(F)(F)F)c2c1CC2 [WO2025049746, Example 97]"
32,26,"CCc1c(N2CCN(C(=O)c3ncnc(C)c3O)CC2)c(=O)n2nc(-c3ccc4c(c3)CCOC4)nc2n1C(F)(F)C(=O)Nc1ccc(C(F)(F)F)cc1Cl [WO2025049746, Example 402]"
34,27,"CCc1c(N2CCN(C(=O)c3cccc4c3NS(=O)(=O)CC4)CC2)c(=O)n2nc(-c3ccc4c(c3)COC4)nc2n1CC(=O)Nc1ccc(C(F)(F)F)cc1Cl [WO2025049746, Example 425]"
37.1,29.4,"CCc1c(N2CCN(C(=O)c3ncnc(C)c3O)CC2)c(=O)n2nc(-c3cccc4c3cnn4C)nc2n1CC(=O)Nc1ccc(C(F)(F)F)cc1Cl [WO2025049746, Example 22]"
26,23,"CCc1c(N2CCN(C(=O)c3ncnc(C)c3O)CC2)c(=O)n2nc(-c3ccc(C(=O)N4CCCC4)cc3)nc2n1CC(=O)Nc1ccc(C(F)(F)F)cc1Cl [WO2025049746, Example 267]"
